# In patent US20240041806A1, “Eyedrops for Inhibiting Myopia Progression in Children and Screening Method for Inhibitor of Myopia Progression in Children” (Tsubota Laboratory, Inc., priority 2020, published 2024):
# Entries after “also recorded” stand apart in the source; their conditions may differ. Where two headings read alike, the source gives them in different places.
# Columns and labels:
# [1] = system: myopia-induced juvenile mouse; assay: Lens-induced myopia (-30 D lens) in juvenile mouse: axial length (SD-OCT) and refraction; type: in vivo, mouse (C57BL6J); conditions: for axial elongation of myopia-induced eye / myopic refraction of myopia-induced eye / axial elongation of control eye in which myopia had not been induced: eyedrop once a day for 10 days, 60 μM STF, 100 μM other inhibitors; for axial elongation of myopia-induced eye / myopic refraction of myopia-induced eye: -30 D lens eye; for axial elongation of control eye in which myopia had not been induced: compared with DMSO eyedrop
# [2] = system: lens of myopia-induced juvenile mouse; conditions: -30 D lens wearing group
# Description: It was examined whether or not a difference in the dosage form of 4-PBA affects the change in the lens. In accordance with the description given above in “Experimental Method”, 4-PBA was eye-dropped or intraperitoneally administered to a myopia-induced juvenile mouse, and the thickness of the lens was measured with SD-OCT in the same manner as in the measurement of the axial length.
# [3] = system: endoplasmic reticulum stress response genes (PERK pathway and ATF6 pathway) in the sclera; conditions: FIG. 8
# Description: A solution of sodium phenylbutyrate in PBS (4-PBA; 200 mg/kg) or tauroursodeoxycholic acid (TUDCA; 100 mg/kg) was intraperitoneally injected (i.p.) every day during the myopia induction period. Quantitative real-time PCR was performed using StepOnePlus Realtime PCR system with PowerUp SYBR Green Master Mix (Applied Biosystems, CA, USA). Expression level was standardized using β-actin. FIG. 8 illustrates change in gene expression obtained after intraperitoneal injection of 4-PBA every day through the myopia induction period. […] Besides, FIG. 10 illustrates axial elongation (a) and refraction change (b) obtained by eyedrop administration of 0.2% or 2% 4-PBA to a mouse during myopia induction. FIG. 11 illustrates axial elongation (b) and refraction change (a) obtained by intraperitoneal injection of TUDCA every day over the myopia induction period.
# [4] = eyedrop administration of 2% 4-PBA as printed, 1st and 3rd weeks, FIG. 9
molecule,measurement,setting,value
Cc1cc(=O)oc2c(C=O)c(O)ccc12 [4μ8C],axial elongation of myopia-induced eye,[1],neither axial elongation nor myopic refraction was inhibited
same,myopic refraction of myopia-induced eye,[1],neither axial elongation nor myopic refraction was inhibited
O=C(Nc1cnn(Cc2ccc(C(F)(F)F)cc2C(F)(F)F)c1)c1cc(-c2ccco2)on1 [Ceapin-A7],axial elongation of myopia-induced eye,[1],neither axial elongation nor myopic refraction was inhibited
same,myopic refraction of myopia-induced eye,[1],neither axial elongation nor myopic refraction was inhibited
same,axial elongation of control eye in which myopia had not been induced,[1],the eye axis of the control eye also elongated
"C[C@H](CCC(=O)NCCS(=O)(=O)O)[C@H]1CC[C@H]2[C@@H]3[C@@H](O)C[C@@H]4C[C@H](O)CC[C@]4(C)[C@H]3CC[C@]12C [TUDCA, tauroursodeoxycholic acid]",physiological axial elongation,"[1]; intraperitoneal TUDCA 100 mg/kg every day during myopia induction, FIG. 11",did not inhibit physiological axial elongation
same,myopic refraction,"[1]; intraperitoneal TUDCA 100 mg/kg every day during myopia induction, FIG. 11(a)",myopic refraction is inhibited
same,axial elongation (pathologic axial elongation),"[1]; intraperitoneal TUDCA 100 mg/kg every day during myopia induction, FIG. 11(b)",inhibited pathologic axial elongation; also recorded: axial elongation is inhibited
Sodium phenylbutyrate [4-PBA],"axial elongation, dose dependence","[1]; eyedrop administration of 0.2% or 2% 4-PBA during myopia induction, FIG. 10(a)",dose-dependent effectiveness was found; also recorded: inhibits axial elongation dose-dependently
same,"myopic refraction, dose dependence","[1]; eyedrop administration of 0.2% or 2% 4-PBA during myopia induction, FIG. 10(b)",dose-dependent effectiveness was found; also recorded: inhibits myopic refraction dose-dependently
same,axial elongation,[1]; [4],significantly inhibited to the same extent
same,myopic refraction,[1]; [4],significantly inhibited to the same extent
same,axial elongation,"[1]; intraperitoneal 4-PBA 200 mg/kg/day, 1st week and 3rd week of myopia induction (LIM), FIG. 9(a)",the axial elongation is inhibited
same,myopic refraction,"[1]; intraperitoneal 4-PBA 200 mg/kg/day, 1st week and 3rd week of myopia induction (LIM), FIG. 9(b)",the myopic refraction is inhibited
same,lens thickening caused by myopia induction (LIM),"[2]; eyedrop administration of 4-PBA, FIG. 14(B)",lens thickening was not caused
same,lens thickening caused by myopia induction (LIM),"[2]; intraperitoneal administration of 4-PBA, FIG. 14(A)",did not affect lens thickening
same,expression of endoplasmic reticulum stress response genes in sclera of myopia induced eyes,[3]; 4-PBA 200 mg/kg/day intraperitoneal vs PBS,the increase is inhibited
same,expression of genes disposed downstream of the PERK pathway and the ATF6 pathway,[3]; eyedrop administration of 2% 4-PBA as printed,significantly inhibited
Cn1cc(-c2ccc3c(c2)CCN3C(=O)Cc2cccc(C(F)(F)F)c2)c2c(N)ncnc21 [GSK2606414],axial elongation of myopia-induced eye,[1],neither axial elongation nor myopic refraction was inhibited
same,myopic refraction of myopia-induced eye,[1],neither axial elongation nor myopic refraction was inhibited
same,axial elongation of control eye in which myopia had not been induced,[1],the eye axis of the control eye also elongated
